Assay results from ChEMBL document CHEMBL5291721, “A preclinical secondary pharmacology resource illuminates target-adverse drug reaction associations of marketed drugs” (Nat Commun, 2023).

Legend:
D(3) dopamine receptor = D(3) dopamine receptor (Homo sapiens, UniProt P35462)
Cannabinoid receptor 1 = Cannabinoid receptor 1 (Homo sapiens, UniProt P21554); format: functional, cell-based
[1] = biological target: Gamma-aminobutyric acid receptor subunit alpha-1 (Rattus norvegicus, UniProt P62813)
[2] = biological target: T1, 5-hydroxytryptamine receptor 1A (Homo sapiens, UniProt P08908); format: functional, cell-based
T1 sequence (P08908 whole entry): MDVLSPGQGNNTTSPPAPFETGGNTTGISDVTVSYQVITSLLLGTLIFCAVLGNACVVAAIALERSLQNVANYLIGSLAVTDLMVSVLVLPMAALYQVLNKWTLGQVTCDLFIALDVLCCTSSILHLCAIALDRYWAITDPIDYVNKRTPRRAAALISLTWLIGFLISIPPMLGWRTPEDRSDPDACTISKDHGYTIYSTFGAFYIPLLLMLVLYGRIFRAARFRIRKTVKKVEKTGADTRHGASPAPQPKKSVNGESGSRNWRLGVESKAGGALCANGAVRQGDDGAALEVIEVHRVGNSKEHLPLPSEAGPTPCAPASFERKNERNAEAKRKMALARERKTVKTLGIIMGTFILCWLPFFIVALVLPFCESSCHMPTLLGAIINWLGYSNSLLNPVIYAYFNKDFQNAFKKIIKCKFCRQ

[3] = biological target: 5-hydroxytryptamine receptor 2A (Homo sapiens, UniProt P28223); format: functional, cell-based
Chain of 5-hydroxytryptamine receptor 2A (P28223 whole entry): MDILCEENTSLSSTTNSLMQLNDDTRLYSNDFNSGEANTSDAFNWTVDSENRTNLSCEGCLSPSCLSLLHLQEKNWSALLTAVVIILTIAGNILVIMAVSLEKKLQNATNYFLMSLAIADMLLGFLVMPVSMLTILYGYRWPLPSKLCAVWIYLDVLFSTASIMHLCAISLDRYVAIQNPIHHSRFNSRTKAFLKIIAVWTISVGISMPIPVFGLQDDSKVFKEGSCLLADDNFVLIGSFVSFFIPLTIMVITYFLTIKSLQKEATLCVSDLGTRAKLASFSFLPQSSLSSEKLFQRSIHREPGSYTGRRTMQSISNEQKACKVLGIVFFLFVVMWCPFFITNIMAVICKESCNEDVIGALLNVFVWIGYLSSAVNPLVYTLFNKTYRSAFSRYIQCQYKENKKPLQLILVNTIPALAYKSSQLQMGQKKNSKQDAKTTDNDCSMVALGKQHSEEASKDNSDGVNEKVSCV

[4] = biological target: Beta-2 adrenergic receptor (Homo sapiens, UniProt P07550)
Chain of Beta-2 adrenergic receptor (P07550 whole entry): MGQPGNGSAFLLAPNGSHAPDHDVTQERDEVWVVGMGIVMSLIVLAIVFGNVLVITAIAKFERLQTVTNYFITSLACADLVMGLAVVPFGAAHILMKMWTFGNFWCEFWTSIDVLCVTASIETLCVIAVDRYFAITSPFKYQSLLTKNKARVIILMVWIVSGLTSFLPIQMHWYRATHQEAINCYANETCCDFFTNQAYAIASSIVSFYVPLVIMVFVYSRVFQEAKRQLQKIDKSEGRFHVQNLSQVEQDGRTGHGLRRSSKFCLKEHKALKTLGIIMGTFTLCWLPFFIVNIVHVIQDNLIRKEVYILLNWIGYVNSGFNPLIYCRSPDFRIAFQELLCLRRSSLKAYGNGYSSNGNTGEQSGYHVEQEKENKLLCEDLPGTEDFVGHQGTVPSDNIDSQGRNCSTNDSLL

[5] = biological target: T2, Alpha-2B adrenergic receptor (Homo sapiens, UniProt P18089)
T2 sequence (P18089 whole entry): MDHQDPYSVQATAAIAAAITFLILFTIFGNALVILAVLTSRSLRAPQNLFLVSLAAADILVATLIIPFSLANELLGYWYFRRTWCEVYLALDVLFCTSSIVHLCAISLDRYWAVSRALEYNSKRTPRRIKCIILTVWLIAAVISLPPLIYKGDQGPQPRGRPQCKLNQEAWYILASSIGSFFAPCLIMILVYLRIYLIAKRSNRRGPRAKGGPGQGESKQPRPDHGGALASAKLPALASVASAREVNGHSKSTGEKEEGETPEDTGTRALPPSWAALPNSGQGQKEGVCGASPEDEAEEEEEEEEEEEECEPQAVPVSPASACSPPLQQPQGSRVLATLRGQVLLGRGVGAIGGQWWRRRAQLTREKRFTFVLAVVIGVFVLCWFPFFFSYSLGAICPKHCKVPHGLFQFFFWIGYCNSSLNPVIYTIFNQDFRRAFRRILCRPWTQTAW

D(1A) dopamine receptor = D(1A) dopamine receptor (Homo sapiens, UniProt P21728); format: functional, cell-based
Chain of D(1A) dopamine receptor (P21728 whole entry): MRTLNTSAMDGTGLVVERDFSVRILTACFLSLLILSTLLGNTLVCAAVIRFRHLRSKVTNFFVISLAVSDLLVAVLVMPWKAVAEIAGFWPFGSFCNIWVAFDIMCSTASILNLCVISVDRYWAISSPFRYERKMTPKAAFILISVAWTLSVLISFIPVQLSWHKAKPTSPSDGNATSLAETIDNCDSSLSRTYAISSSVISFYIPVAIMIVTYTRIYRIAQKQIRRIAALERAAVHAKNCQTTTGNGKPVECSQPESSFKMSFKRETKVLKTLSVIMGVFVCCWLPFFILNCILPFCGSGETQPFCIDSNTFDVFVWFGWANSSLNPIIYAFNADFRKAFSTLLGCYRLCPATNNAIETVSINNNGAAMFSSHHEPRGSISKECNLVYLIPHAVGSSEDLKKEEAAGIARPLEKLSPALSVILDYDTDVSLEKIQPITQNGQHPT

[6] = biological target: T1, 5-hydroxytryptamine receptor 1A
Estrogen receptor = biological target: T3, Estrogen receptor (Homo sapiens, UniProt P03372)
T3 sequence (P03372 whole entry): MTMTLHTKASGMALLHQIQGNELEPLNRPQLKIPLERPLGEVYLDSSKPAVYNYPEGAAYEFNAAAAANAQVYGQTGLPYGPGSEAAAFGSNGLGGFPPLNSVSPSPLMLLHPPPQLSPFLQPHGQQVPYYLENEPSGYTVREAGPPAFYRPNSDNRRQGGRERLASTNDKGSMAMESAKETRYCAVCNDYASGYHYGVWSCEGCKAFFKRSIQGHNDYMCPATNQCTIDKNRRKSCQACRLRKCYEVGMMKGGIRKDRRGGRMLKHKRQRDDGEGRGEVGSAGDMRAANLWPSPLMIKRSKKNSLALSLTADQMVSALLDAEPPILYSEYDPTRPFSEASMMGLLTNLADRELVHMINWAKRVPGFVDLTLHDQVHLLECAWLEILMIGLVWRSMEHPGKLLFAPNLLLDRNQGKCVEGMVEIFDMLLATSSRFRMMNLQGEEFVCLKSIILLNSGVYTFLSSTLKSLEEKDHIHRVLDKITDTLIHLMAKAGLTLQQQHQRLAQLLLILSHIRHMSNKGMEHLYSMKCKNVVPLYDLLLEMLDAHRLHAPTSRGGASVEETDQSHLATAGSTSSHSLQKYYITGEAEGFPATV

Adenosine receptor A3 = biological target: T4, Adenosine receptor A3 (Homo sapiens, UniProt P0DMS8)
T4 sequence (P0DMS8 whole entry): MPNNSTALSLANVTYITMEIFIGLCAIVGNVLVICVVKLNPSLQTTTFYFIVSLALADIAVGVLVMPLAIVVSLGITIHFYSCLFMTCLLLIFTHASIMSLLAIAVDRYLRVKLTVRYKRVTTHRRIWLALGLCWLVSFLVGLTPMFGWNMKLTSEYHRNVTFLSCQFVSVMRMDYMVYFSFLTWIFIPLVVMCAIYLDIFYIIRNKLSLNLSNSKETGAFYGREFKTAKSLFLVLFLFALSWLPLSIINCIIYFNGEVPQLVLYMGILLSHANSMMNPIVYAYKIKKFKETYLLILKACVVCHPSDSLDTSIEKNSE

Histamine H3 receptor = Histamine H3 receptor (Homo sapiens, UniProt Q9Y5N1)
Chain of Histamine H3 receptor (Q9Y5N1 whole entry): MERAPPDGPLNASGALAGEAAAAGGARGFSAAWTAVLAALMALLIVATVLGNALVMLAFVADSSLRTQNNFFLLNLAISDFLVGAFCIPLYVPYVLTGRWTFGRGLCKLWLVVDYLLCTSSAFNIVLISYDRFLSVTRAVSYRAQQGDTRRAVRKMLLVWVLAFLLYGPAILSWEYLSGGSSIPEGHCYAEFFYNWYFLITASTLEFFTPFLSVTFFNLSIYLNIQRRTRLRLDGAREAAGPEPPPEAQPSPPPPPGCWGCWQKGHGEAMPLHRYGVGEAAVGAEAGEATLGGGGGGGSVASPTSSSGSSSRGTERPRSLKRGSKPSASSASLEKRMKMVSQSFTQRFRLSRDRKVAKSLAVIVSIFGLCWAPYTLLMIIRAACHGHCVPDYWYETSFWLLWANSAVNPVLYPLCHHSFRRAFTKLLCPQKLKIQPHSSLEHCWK

[7] = biological target: Voltage-gated inwardly rectifying potassium channel KCNH2 (Homo sapiens, UniProt Q12809); format: functional; conditions: read-out: AC50
Chain of Voltage-gated inwardly rectifying potassium channel KCNH2 (Q12809 whole entry): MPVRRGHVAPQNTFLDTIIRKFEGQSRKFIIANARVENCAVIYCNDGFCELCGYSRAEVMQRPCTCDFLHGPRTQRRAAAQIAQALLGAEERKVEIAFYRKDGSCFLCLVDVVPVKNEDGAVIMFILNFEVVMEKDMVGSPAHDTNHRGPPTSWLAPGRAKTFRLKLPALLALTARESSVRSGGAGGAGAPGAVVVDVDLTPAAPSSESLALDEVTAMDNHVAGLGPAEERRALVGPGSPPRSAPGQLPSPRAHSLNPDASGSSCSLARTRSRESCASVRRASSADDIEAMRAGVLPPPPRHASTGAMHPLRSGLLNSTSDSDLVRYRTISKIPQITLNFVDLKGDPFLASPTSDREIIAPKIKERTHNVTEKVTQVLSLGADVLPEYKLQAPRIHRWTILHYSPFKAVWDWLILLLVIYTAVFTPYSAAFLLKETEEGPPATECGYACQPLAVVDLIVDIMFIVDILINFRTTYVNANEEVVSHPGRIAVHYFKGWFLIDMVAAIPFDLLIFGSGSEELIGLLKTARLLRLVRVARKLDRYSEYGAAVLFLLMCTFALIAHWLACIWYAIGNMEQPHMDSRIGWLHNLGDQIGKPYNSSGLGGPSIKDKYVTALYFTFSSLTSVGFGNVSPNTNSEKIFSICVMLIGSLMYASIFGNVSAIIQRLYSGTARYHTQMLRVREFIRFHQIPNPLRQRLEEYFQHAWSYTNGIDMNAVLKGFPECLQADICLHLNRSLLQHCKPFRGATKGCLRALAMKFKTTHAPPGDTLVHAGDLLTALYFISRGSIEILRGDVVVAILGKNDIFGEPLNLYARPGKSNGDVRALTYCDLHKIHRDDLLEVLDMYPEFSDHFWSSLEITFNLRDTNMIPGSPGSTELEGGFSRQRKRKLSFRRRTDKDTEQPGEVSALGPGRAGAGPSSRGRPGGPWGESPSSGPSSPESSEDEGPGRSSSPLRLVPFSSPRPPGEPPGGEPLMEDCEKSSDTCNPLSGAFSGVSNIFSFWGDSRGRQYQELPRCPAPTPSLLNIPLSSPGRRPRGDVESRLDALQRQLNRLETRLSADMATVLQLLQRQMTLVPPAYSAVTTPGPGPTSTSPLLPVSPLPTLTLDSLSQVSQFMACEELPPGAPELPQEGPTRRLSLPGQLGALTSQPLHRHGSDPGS

[8] = biological target: T5, Alpha-1A adrenergic receptor (Homo sapiens, UniProt P35348); format: functional, cell-based
T5 sequence (P35348 whole entry): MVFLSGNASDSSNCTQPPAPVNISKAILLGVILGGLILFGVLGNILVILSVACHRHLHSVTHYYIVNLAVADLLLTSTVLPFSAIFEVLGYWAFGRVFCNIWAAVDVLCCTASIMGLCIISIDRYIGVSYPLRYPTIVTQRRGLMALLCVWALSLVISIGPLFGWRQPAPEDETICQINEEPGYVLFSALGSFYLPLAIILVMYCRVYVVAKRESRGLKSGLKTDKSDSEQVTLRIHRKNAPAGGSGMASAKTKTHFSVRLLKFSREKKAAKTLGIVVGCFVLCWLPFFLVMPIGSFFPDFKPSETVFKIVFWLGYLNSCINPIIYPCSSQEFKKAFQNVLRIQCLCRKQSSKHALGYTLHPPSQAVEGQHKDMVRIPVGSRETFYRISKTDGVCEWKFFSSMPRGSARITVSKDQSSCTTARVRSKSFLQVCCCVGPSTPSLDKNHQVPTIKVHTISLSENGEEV

[9] = biological target: cGMP-inhibited 3',5'-cyclic phosphodiesterase 3A (Homo sapiens, UniProt Q14432); format: functional

Measured: AC50
Also: assay procedure not described here.

Chain of D(3) dopamine receptor (P35462 whole entry): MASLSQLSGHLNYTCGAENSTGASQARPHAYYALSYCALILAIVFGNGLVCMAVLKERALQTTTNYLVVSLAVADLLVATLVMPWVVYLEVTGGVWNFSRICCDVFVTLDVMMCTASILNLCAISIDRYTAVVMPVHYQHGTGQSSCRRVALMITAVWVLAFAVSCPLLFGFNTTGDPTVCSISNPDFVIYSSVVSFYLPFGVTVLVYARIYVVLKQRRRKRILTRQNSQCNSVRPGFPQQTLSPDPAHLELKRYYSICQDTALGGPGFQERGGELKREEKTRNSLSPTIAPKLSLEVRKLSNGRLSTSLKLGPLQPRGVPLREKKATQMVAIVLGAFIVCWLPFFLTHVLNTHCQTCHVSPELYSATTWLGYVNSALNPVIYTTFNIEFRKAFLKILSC
Chain of Gamma-aminobutyric acid receptor subunit alpha-1 (P62813 whole entry): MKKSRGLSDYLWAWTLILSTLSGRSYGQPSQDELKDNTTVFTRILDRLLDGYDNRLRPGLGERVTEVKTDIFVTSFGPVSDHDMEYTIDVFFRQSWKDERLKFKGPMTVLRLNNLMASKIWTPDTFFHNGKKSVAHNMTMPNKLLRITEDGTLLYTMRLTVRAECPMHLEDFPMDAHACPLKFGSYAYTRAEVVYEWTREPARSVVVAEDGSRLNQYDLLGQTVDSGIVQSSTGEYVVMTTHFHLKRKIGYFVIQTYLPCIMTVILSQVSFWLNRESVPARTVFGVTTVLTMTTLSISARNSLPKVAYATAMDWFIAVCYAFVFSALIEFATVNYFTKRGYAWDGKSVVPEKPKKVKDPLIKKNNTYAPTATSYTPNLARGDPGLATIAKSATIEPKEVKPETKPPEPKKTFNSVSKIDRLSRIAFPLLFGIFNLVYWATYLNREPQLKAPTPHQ
Chain of Cannabinoid receptor 1 (P21554 whole entry): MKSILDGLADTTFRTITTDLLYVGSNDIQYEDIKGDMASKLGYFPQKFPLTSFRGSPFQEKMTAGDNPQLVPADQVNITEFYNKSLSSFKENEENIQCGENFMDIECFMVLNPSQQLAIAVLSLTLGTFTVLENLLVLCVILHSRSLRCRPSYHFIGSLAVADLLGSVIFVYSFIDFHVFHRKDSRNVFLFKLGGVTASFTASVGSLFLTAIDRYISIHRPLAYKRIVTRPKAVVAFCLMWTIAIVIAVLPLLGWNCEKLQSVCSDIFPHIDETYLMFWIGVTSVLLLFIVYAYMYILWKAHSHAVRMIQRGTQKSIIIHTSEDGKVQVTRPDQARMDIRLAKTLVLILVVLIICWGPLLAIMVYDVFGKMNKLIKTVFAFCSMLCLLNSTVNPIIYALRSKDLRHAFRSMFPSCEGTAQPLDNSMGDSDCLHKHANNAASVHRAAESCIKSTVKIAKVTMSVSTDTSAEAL

CCN(CC)C(=O)C1(c2ccccc2)CC1CN (stereo not given)
> 30 µM: D(3) dopamine receptor | Cannabinoid receptor 1 | [1] | [2] | [3] | [4] | [5] | D(1A) dopamine receptor

CN(C)C(=O)Oc1cccc([N+](C)(C)C)c1 [NEOSTIGMINE]
> 30 µM: [6] | Estrogen receptor | Adenosine receptor A3 | Histamine H3 receptor | [7] | [8] | [9]
